From ChEMBL document CHEMBL1201862, “PubChem BioAssay data set” (2004)
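Exposure lasted 48 hours, with cells grown in 96-well plates and compounds tested at five concentrations. GI50 marks 50% less growth.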 The source made the active and inactive calls. No stated cut-off is given here; in the data, active = GI50 up to about 1.1 µM and inactive = higher.

Columns and labels:
Assay in all cases: NCI anticancer screen, dose series, 48 h
HOP-62 = system: HOP-62
UACC-257 = system: UACC-257
NCI-H460 = system: NCI-H460
HT-29 = system: HT-29
EKVX = system: EKVX
K562 = system: K562
M14 = system: M14
SN12C = system: SN12C
SK-MEL-2 = system: SK-MEL-2
IGROV-1 = system: IGROV-1
SF-295 = system: SF-295
U-251 = system: U-251
SW-620 = system: SW-620
HCC 2998 = system: HCC 2998
LOX IMVI = system: LOX IMVI
SNB-75 = system: SNB-75
CAKI-1 = system: CAKI-1
HL-60 = system: HL-60

Measured: GI50

CN1C(=O)CC2(C)c3cc(C=O)ccc3N(C)C12 (stereo unspecified)
inactive: HOP-62 > 100 µM | UACC-257 > 100 µM | NCI-H460 > 100 µM | HT-29 > 100 µM | EKVX > 100 µM | K562 > 100 µM | M14 > 100 µM | SN12C > 100 µM | SK-MEL-2 > 100 µM | IGROV-1 > 100 µM | SF-295 > 100 µM | U-251 > 100 µM | SW-620 > 100 µM | HCC 2998 > 100 µM | LOX IMVI > 100 µM | SNB-75 69.5 µM

CC1=C(/C=C/C(C)=C/C=C/C(C)=C/C=C/C=C(C)/C=C/C=C(C)/C=C/C=C(C)/C=C/C=C(\C)C(=O)O)C(C)(C)CCC1
inactive: HOP-62 > 100 µM | UACC-257 > 100 µM | NCI-H460 > 100 µM | HT-29 > 100 µM | CAKI-1 > 100 µM | EKVX > 100 µM | K562 > 100 µM | M14 > 100 µM | SN12C > 100 µM | SK-MEL-2 > 100 µM | IGROV-1 > 100 µM | SF-295 > 100 µM | U-251 > 100 µM | SW-620 > 100 µM | SNB-75 69 µM

Cc1cc2c(c(C(N)=O)c1C)-c1cccc(F)c1C2=O
inactive: HOP-62 > 100 µM | UACC-257 > 100 µM | NCI-H460 > 100 µM | HT-29 > 100 µM | EKVX > 100 µM | K562 > 100 µM | M14 > 100 µM | SN12C > 100 µM | SK-MEL-2 > 100 µM | IGROV-1 > 100 µM | SF-295 > 100 µM | U-251 > 100 µM | SW-620 > 100 µM | HCC 2998 > 100 µM | LOX IMVI > 100 µM | SNB-75 30.3 µM

C[C@]12CC[C@H](OC3CCCCO3)CC1=CC[C@@H]1C2CC[C@]2(C)/C(=N/O)CCC12 (stereo partly specified)
inactive: HOP-62 > 100 µM | UACC-257 30.3 µM | NCI-H460 18.8 µM | HT-29 12.3 µM | CAKI-1 40.6 µM | EKVX 23.7 µM | K562 14.4 µM | M14 21.4 µM | SN12C 14.2 µM | SK-MEL-2 36.8 µM | IGROV-1 > 100 µM | SF-295 15.1 µM | U-251 19.6 µM | SW-620 36.9 µM | HCC 2998 17.5 µM | LOX IMVI 13.8 µM | SNB-75 20.5 µM

O=c1[nH]c2c(O)cccc2c2cc3c(c(O)c12)OCO3 [NARCIPRIMINE]
inactive: HOP-62 19.2 µM | UACC-257 19.7 µM | HL-60 6.44 µM | NCI-H460 14.6 µM | HT-29 21.2 µM | CAKI-1 20.9 µM | EKVX 25.8 µM | K562 17.5 µM | M14 20.4 µM | SN12C 20.7 µM | IGROV-1 26.1 µM | SF-295 20.1 µM | U-251 16 µM | SW-620 26.6 µM | HCC 2998 19.5 µM | LOX IMVI 11 µM | SNB-75 20.8 µM
